Measurements published in patent US20240059753A1, “COMPOSITIONS INCLUDING MULTI-AGONIST PEPTIDES AND METHODS OF MANUFACTURE AND USE” (Pep2Tango Therapeutics Inc., priority 2022, published 2024).
Structures can show the parent of a compound that is named as a salt. Numbered stars: 1 amine (or outer) side, 2 acyl side, 3 side chain; on linkers, the order of the positions; unused ones are H or OH. Bridge positions count the residues as written; N and C are the ends. Square brackets hold non-standard residues; d marks the D form. Side chains are listed from the residue outwards. * marks the point of attachment. C20 diacid = O=C(O)CCCCCCCCCCCCCCCCCCC(=O)*; C18 diacid = O=C(O)CCCCCCCCCCCCCCCCC(=O)*; γGlu = O=C(O)[C@H](CCC(=O)[*:2])N[*:1]; AEEA = NCCOCCOCC(=O)O; Aib = CC(C)(N)C(=O)O

B1: Y-Aib-E-G-T-F-T-S-D-Y-S-I-Aib-LDKIAQQAFVQWLIAGGPSSGAPPPSCNTATCVLGRLSQELHRLQTYPRTNTGK*-N-T-Y-NH2-acetate salt (wherein K* = … (peptide)
chain: Y[Aib]EGTFTSDYSI[Aib]LDKIAQQAFVQWLIAGGPSSGAPPPSCNTATCVLGRLSQELHRLQTYPRTNTGK([γGlu-γGlu-C20 diacid])NTY-NH2
modifications: also: acetate salt

What was measured:
Human CalcitoninR = target: T1, Human CalcitoninR (Homo sapiens, UniProt P30988); experiment: GPCR cell-based cAMP assay, human calcitonin receptor; conditions: stably transfected CHO-Kl cells, 0.1% casein
T1 construct: expressed in transfected cells; host or cells: CHO-K1, stably transfected
T1 sequence (P30988 25-474): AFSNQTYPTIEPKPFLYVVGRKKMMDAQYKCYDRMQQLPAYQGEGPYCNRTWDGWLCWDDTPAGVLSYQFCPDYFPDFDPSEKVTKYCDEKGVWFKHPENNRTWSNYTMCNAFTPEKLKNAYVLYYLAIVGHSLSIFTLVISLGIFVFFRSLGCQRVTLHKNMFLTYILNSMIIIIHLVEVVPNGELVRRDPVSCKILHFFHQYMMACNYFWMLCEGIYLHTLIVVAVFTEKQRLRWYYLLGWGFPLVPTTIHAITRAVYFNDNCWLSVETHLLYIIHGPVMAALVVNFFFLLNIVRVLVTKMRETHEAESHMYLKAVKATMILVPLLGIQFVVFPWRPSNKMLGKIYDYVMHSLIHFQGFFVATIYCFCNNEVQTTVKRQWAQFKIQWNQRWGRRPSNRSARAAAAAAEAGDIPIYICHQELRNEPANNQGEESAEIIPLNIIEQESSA
Experimental: (§1) Experimental protocol: Cells were seeded in a total volume of 20 μL into white walled, 384-well microplates and incubated at 37° C. overnight prior to testing. Prior to testing cell plating media was exchanged with 10 μL of Assay buffer (HBSS+10 mM HEPES). All compounds were run in assay buffer containing 0.1% casein. Briefly, intermediate dilution of sample stocks was performed to generate 4× sample in assay buffer. 5 μL of 4× sample was added to cells and incubated at 37° C. for 30 minutes. Final assay vehicle concentration was 1%. […] Microplates were read following signal generation with PerkinElmer Envision instrument for chemiluminescent signal detection.
(§2) The results are expressed as a percent efficacy relative to the maximum response of the control ligand.

Human Calc/RAMP3R (AMY3) = target: T2, Human Calc/RAMP3R (AMY3) (Homo sapiens, UniProt O60896+P30988); experiment: GPCR cell-based cAMP assay, human AMY3 receptor; conditions: stably transfected CHO-Kl cells, 0.1% casein
T2 construct: expressed in transfected cells; host or cells: CHO-K1, stably transfected
T2 sequence (P30988 25-474): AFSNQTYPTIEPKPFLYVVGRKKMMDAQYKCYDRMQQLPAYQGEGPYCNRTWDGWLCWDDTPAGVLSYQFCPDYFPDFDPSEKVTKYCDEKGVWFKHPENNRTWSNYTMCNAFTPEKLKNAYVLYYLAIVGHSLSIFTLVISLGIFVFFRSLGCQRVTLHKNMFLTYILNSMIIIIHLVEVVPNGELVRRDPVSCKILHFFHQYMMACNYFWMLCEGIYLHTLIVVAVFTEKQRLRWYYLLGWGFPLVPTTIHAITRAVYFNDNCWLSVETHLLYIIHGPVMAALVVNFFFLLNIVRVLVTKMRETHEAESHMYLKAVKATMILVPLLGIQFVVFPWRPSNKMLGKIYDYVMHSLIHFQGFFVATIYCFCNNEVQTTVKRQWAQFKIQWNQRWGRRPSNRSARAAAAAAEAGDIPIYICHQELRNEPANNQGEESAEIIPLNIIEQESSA
T2 sequence (O60896 24-148 partner): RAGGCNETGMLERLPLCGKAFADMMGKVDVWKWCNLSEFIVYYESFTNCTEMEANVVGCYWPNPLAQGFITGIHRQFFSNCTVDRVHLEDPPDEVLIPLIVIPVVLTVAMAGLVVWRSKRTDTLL
Experimental: as §1, §2

Human GIPR = target: T3, Human GIPR (Homo sapiens, UniProt P48546); experiment: GPCR cell-based cAMP assay, human GIP receptor; conditions: stably transfected CHO-Kl cells, 0.1% casein
T3 construct: expressed in transfected cells; host or cells: CHO-K1, stably transfected
T3 sequence (P48546 22-466): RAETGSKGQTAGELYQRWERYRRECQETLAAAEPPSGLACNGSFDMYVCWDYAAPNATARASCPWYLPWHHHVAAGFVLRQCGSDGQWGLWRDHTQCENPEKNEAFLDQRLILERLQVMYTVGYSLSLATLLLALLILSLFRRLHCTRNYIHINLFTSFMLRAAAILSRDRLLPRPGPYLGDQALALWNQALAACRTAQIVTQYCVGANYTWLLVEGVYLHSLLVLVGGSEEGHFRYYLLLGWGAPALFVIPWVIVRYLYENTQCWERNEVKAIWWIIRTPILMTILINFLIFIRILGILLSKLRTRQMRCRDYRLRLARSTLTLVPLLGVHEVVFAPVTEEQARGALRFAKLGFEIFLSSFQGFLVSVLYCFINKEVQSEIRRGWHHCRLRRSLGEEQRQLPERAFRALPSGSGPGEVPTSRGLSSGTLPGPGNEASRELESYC
Experimental: as §1, §2

Human GLP-1R = Human GLP-1R (Homo sapiens, UniProt P43220); experiment: GPCR cell-based cAMP assay, human GLP-1 receptor; parameters: expressed in transfected cells; host or cells: CHO-K1, stably transfected; conditions: stably transfected CHO-Kl cells, 0.1% casein
Experimental: as §1, §2

4 h fasted mice = experiment: Blood glucose after single administration of peptides; assay type: in vivo
Experimental: Differences were considered statistically significant at p<0.05. Data analysis was carried out with GraphPad software (GraphPad Prism).

Sequence of Human GLP-1R (P43220 24-463): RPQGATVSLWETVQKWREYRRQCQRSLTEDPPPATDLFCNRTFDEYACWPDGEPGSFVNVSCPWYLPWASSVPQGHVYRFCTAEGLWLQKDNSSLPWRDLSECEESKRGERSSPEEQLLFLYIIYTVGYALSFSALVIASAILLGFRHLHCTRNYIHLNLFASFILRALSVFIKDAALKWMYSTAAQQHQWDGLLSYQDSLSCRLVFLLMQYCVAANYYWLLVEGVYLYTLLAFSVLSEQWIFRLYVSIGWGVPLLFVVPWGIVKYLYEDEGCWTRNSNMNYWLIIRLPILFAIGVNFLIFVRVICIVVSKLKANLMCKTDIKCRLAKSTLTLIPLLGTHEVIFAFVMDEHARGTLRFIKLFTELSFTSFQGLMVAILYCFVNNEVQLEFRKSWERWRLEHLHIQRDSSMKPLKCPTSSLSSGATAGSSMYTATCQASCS

Molecule | EC50 (Human CalcitoninR) [nM] | EC50 (Human Calc/RAMP3R (AMY3)) [nM] | EC50 (Human GIPR) [nM] | EC50 (Human GLP-1R) [nM] | Blood glucose, 120 min (4 h fasted mice; 4 h fasted mice, single s.c. 10 nmol/Kg, 120 min after injection, mean ± SEM) [mg/dL] | Blood glucose, 240 min (4 h fasted mice; 4 h fasted mice, single s.c. 10 nmol/Kg, 240 min after injection, mean ± SEM) [mg/dL] | Blood glucose, Time 0 (4 h fasted mice; 4 h fasted mice, single s.c. 10 nmol/Kg, Time 0 (baseline), mean ± SEM) [mg/dL] | Significantly reduced blood glucose at 120 min and 240 min compared to time 0 (4 h fasted mice; single s.c. 10 nmol/kg)
Y[Aib]EGTFTSDYSI[Aib]LDKIAQQAFVQWLIAGGPSASHLSTAVLGK([AEEA-AEEA-γGlu-C18 diacid])LS[Aib]ELHKLEDYPRTDVGAESP-NH2 [SEQ ID NO. 57, Y-Aib-E-G-T-F-T-S-D-Y-S-I-Aib-LDKIAQQAFVQWLIAGGPSASHLSTAVLGK*-L-S-Aib-E-L-H-K-L-E-D-Y-P-R-T-D-V-G-A-E-S-P-NH2-acetate salt (wherein K* = Lys(AEEAc-AEEAc-γ-Glu-17-carboxyheptadecanoyl))] | 0.044 | 0.152 | 0.047 | 0.724 |  |  |  | 
Y[Aib]EGTFTSDYSI[Aib]LDKIAQQAFVQWLIAGGPSKCNTATCATQK([AEEA-AEEA-γGlu-C18 diacid])LAEFLRHSSNNFGPILPPTNVGSHTP-NH2 (disulfide 34-39 (inferred)) [SEQ ID NO. 56, Y-Aib-E-G-T-F-T-S-D-Y-S-I-Aib-LDKIAQQAFVQWLIAGGPSKCNTATCATQK*-LAEFLRHSSNNFGPILPPTNVGSHTP-NH2-acetate salt (wherein K* = Lys(AEEAc-AEEAc-γ-Glu-17-carboxyheptadecanoyl))] |  |  | 0.029 | 1 |  |  |  | 
Y[Aib]EGTFTSDYSI[Aib]LDKIAQQAFVQWLIAGGPSSGAPPPSCNTATCVLGRLSQELHRLQTYPRTNTGK([AEEA-AEEA-γGlu-C18 diacid])NTY-NH2 (disulfide 40-45 (inferred)) [SEQ ID NO. 45, Y-Aib-E-G-T-F-T-S-D-Y-S-I-Aib-LDKIAQQAFVQWLIAGGPSSGAPPPSCNTATCVLGRLSQELHRLQTYPRTNTGK*-N-T-Y-NH2-acetate salt (wherein K* is Lys(AEEAc-AEEAc-γ-Glu-17-carboxyheptadecanoyl))] | 0.106 | 0.333 | 0.041 | 0.416 |  |  |  | 
CC[C@H](C)[C@H](NC(=O)[C@H](CC(C)C)NC(=O)[C@H](Cc1c[nH]c2ccccc12)NC(=O)[C@H](CCC(N)=O)NC(=O)[C@@H](NC(=O)[C@H](Cc1ccccc1)NC(=O)[C@H](C)NC(=O)[C@H](CCC(N)=O)NC(=O)[C@H](CCC(N)=O)NC(=O)[C@H](C)NC(=O)[C@@H](NC(=O)[C@H](CCCCN)NC(=O)[C@H](CC(=O)O)NC(=O)[C@H](CC(C)C)NC(=O)C(C)(C)NC(=O)[C@@H](NC(=O)[C@H](CO)NC(=O)[C@H](Cc1ccc(O)cc1)NC(=O)[C@H](CC(=O)O)NC(=O)[C@H](CO)NC(=O)[C@@H](NC(=O)[C@H](Cc1ccccc1)NC(=O)[C@@H](NC(=O)CNC(=O)[C@H](CCC(=O)O)NC(=O)C(C)(C)NC(=O)[C@@H](N)Cc1ccc(O)cc1)[C@@H](C)O)[C@@H](C)O)[C@@H](C)CC)[C@@H](C)CC)C(C)C)C(=O)N[C@@H](C)C(=O)NCC(=O)NCC(=O)N1CCC[C@H]1C(=O)N[C@@H](CO)C(=O)N[C@@H](CCCCNC(=O)COCCOCCNC(=O)COCCOCCNC(=O)CC[C@H](NC(=O)CCCCCCCCCCCCCCCCC(=O)O)C(=O)O)C(=O)N[C@H]1CSSC[C@@H](C(=O)N[C@@H](C)C(=O)N[C@H](C(=O)N[C@@H](CCC(N)=O)C(=O)N[C@@H](CCCNC(=N)N)C(=O)N[C@@H](CC(C)C)C(=O)N[C@@H](C)C(=O)N[C@@H](CCC(=O)O)C(=O)N[C@@H](Cc2ccccc2)C(=O)N[C@@H](CC(C)C)C(=O)N[C@@H](CCCNC(=N)N)C(=O)N[C@@H](Cc2c[nH]cn2)C(=O)N[C@@H](CO)C(=O)N[C@@H](CO)C(=O)N[C@@H](CC(N)=O)C(=O)N[C@@H](CC(N)=O)C(=O)N[C@@H](Cc2ccccc2)C(=O)NCC(=O)N2CCC[C@H]2C(=O)N[C@H](C(=O)N[C@@H](CC(C)C)C(=O)N2CCC[C@H]2C(=O)N2CCC[C@H]2C(=O)N[C@H](C(=O)N[C@@H](CC(N)=O)C(=O)N[C@H](C(=O)NCC(=O)N[C@@H](CO)C(=O)N[C@@H](Cc2c[nH]cn2)C(=O)N[C@H](C(=O)N2CCC[C@H]2C(N)=O)[C@@H](C)O)C(C)C)[C@@H](C)O)[C@@H](C)CC)[C@@H](C)O)NC(=O)[C@H]([C@@H](C)O)NC(=O)[C@H](C)NC(=O)[C@H]([C@@H](C)O)NC(=O)[C@H](CC(N)=O)NC1=O [SEQ ID NO. 55, Y-Aib-E-G-T-F-T-S-D-Y-S-I-Aib-LDKIAQQAFVQWLIAGGPSK*-CNTATCATQRLAEFLRHSSNNFGPILPPTNVGSHTP-NH2-acetate salt (wherein K* = Lys(AEEAc-AEEAc-γ-Glu-17-carboxyheptadecanoyl))] | 44.2 | 46.1 | 0.019 | 0.324 |  |  |  | 
Cagrilintide [reference compound] |  |  |  |  | 189.7 ± 5.52 | 164.6 ± 6.48 | 169.0 ± 3.45 | not
Y[Aib]EGTFTSDYSI[Aib]LDKIAQQAFVQWLIAGGPSSGAPPPSKCNTATCVLGRLSQELHRLQTYPRTNTK([AEEA-AEEA-γGlu-C18 diacid])SNTY-NH2 (disulfide 41-46 (inferred)) [SEQ ID NO. 52, Y-Aib-E-G-T-F-T-S-D-Y-S-I-Aib-LDKIAQQAFVQWLIAGGPSSGAPPPSKCNTATCVLGRLSQELHRLQTYPRTNTK*-S-N-T-Y-NH2-acetate salt (wherein K* is Lys(AEEAc-AEEAc-γ-Glu-17-carboxyheptadecanoyl))] | 0.694 | 1.24 | 0.147 | 0.59 |  |  |  | 
B1 | 0.388 | 0.218 | 0.011 | 0.854 |  |  |  | 
